In brackets after ≈: the same amount, converted by molar mass. Where two headings read alike, the source gives them in different places.
How the values were obtained:
[1] = Solubility test, shake-flask in FaSSIF-V2; type: physicochemical; conditions: for solubility at 24 h: thermodynamic from solid, read-out: Log S (logarithm of S in mol/L) (converted); for solubility, comparison between tested samples: FaSSIF-V2, pH 6.5, 25° C.
Procedure: This test is focused on evaluating the solubility in Fasted State Simulated Intestinal Fluid (FaSSIF-V2).
5.1. Samples • Comparative sample A (reference): Standard sample of beta-Sitosterol from the Ph. Eu. Reference Standard, ref. (Y0001615) • Sample A: hydrate crystal of beta-sitosterol having 1.25 molecules of water of the present invention • Sample B: cocrystal of beta-sitosterol and gallic acid Form 5 of the present invention
Solubility is determined in FaSSIF-V2 media, prepared as stated by Biorelevant.com using maleic acid buffer (pH=6.5).
All experiments are done under temperature control at 25±1° C. The weight of tested samples expressed in mg, and FaSSIF final volume expressed in mL are as defined in Table below:
Shaking time: 24 h in a rotational stirrer. After 4-5 h of shaking, pH is measured and readjusted to the initial value (6.5) in case it is needed. • Equilibration time: 24 h • Final pH measurement • Phase separation: filtration through a hydrophilic filter (PTFE membrane, 0.45 μm porous size, 4 mm diameter, Millex-LH, Millipore). Before the filtration, the filter was conditioned with sample solution for 1 h. After that time, filtration started rejecting the first drops of sample. • Solid form characterization: solid obtained after filtration is analysed by XRPD to know the exact solid form obtained after the shake-flask procedure. In case of cocrystals, XRPD analysis confirms that experiments are done under eutectic point conditions. • Liquid phase is used for API and coformer quantification.
5.3.2. HPLC Quantification • Instrument: Shimadzu HPLC, with diode array detector (SPD-M10AVPI), two pumps (LC-10ADVP), autoinjector (SIL-10ADVP) and column oven (CTO-10ASVP). • Column:
For comparative sample A and sample A quantification: Phenomenex Kinetex C18, 100×4.6 mm, 2.6 μm. For sample B quantification: Phenomenex Luna C18, 150×4.6 mm, 5 μm. • Conditions:
For comparative sample A and sample A quantification: Mobile phase composed of 80% Methanol-20% Acetonitrile. Isocratic conditions. Flow: 0.8 mL/min. Injection volume: 20 μL.
For sample B quantification: Mobile phase composed of 20 mM formic acid at pH=3 (A) and methanol (B). Gradient conditions: 0-3 min, 5% B; 8 min, 10% B; 15 min, 100% B; 17 min, 5% B; 25 min, 5% B. Flow: 1 mL/min. Injection volume: 10 μL.
Quantification wavelength: 210 nm for comparative sample A and 280 nm for sample A.
The amounts of comparative sample A, sample A and sample B in the filtered solutions coming from Shake-Flask (SF) experiments have been quantified according to the described methodology.
Solubility of the samples A and B has been calculated through the equilibrium concentrations in the eutectic point as described in “S. J. Bethune, N. Huang, A. Jayasankar, N. Rodriguez-Hornedo, Crystal Growth and Design 9, 2009, 3976-3988”, taking into account the stoichiometry of each sample.

[2] = Particle size test by laser diffraction; type: physicochemical
Excerpt: This test provides the particle size of the co-crystals of the present invention in comparison with the comparaitive Standard sample of beta-Sitosterol from the Ph. Eu. Reference Standard, ref. (Y0001615)
7.1. Tested Samples • Comparative sample A: comparaitive Standard sample of beta-Sitosterol from the Ph. Eu. Reference Standard, ref. (Y0001615) • Sample A: hydrate crystal of beta-sitosterol having 1.25 molecules of water of the present invention • Sample B: cocrystal of beta-sitosterol and gallic acid Form 5 of the present invention • Sample C: cocrystal of beta-sitosterol and propionic acid Form 2 of the present invention
The particle size was performed by laser diffraction. For this purpose, a Beckman-Coulter model. LS13320 laser diffractometer (Fullerton, Calif., USA) was equipped with a Micro. Liquid Module (MLM) wet dispersion modul, an an optic model (Fraunhofer. Rdf, PIDS). The measurement range is 0.4-2000 μm.

[3] = system: circulating β-sitosterol levels; assay: Activity test: sitosterolemia (plasma beta-sitosterol, GC-FID) after oral load of lard; type: in vivo, Golden Syrian male Hamsters; conditions: for decrease in circulating levels of β-sitosterol: 5 h post-treatment (T5) with respect to T0 value, oral load of lard 2.5 g/kg BW supplemented with 0.513 g/kg BW
[4] = system: Plasma cholesterol levels; assay: Activity test: plasma cholesterol after oral load of lard; type: in vivo, Golden Syrian male Hamsters; conditions: measured at 5 h (T5) vs T0, oral load of lard 2.5 g/kg BW supplemented with 0.513 g/kg BW
[5] = system: Plasma triglyceride levels; assay: Activity test: plasma triglycerides after oral load of lard; type: in vivo, Golden Syrian male Hamsters; conditions: for reduction of the plasmatic triglyceride concentration: T5 (5 h) vs T0
[6] = Bioavailability assessment: plasma beta-sitosterol after 21 days high-fat diet
[7] = FaSSIF-V2, pH 6.5, 25±1° C., shake-flask 24 h, value (SD)

For `CC[C@H](CC[C@@H](C)[C@H]1CC[C@H]2[C@@H]3CC=C4C[C@@H](O)CC[C@]4(C)[C@H]3CC[C@]12C)C(C)C` [Comparative sample A, beta-sitosterol], the solubility at 24 h ([1]; FaSSIF-V2, 25 °C, pH 6.5, fassif, FaSSIF-V2, pH 6.5, 25±1° C., shake-flask 24 h, value (SD)) was 0.851 µM (≈ 0.353 µg/mL), the “[API] concentration of beta-sitosterol in the solutions coming from SF experiments” value (“[API] concentration of beta-sitosterol” below) [1, 7] was 0.36 (0.06) mg/mL and the D10 [2] was 44.62 μm. For the same compound, the D50 [2] was 108.0 μm, the D90 [2] was 178.8 μm and the “D(3, 2) surface weighted mean diameter” value [2] was 30.19 μm. It also gave a Mean particle size [2] of 109.9 μm.
In the case of `CC[C@H](CC[C@@H](C)[C@H]1CC[C@H]2[C@@H]3CC=C4C[C@@H](O)CC[C@]4(C)[C@H]3CC[C@]12C)C(C)C` [cocrystal Form 2, cocrystal of beta-sitosterol and propionic acid], the “decrease in circulating levels of β-sitosterol” value (from here on “decrease in circulating levels”) ([3]; listed as test sample C) is reported as 14%, the “decrease of plasmatic cholesterol levels” value ([4]; listed as Test sample C) is reported as 21% and the D10 ([2]; listed as Sample C) is reported as 6.671 μm. For the same compound, the D50 ([2]; listed as Sample C) was 28.01 μm, the D90 ([2]; listed as Sample C) was 47.60 μm and the “D(3, 2) surface weighted mean diameter” value ([2]; listed as Sample C) was 13.19 μm. The Mean particle size ([2]; listed as Sample C) was 27.77 μm, the “plasma triglyceride concentrations at T5, comparison between groups (FIG. 15)” value ([5]; 5 h post-oral fat load, 0.513 g/kg BW) was “lower levels at T5 in comparison with both Compound A and compound B” and the “reduction of the plasmatic triglyceride concentration” value (from here on “reduction”) ([5]; oral load of lard 2.5 g/kg BW supplemented with 0.513 g/kg BW, listed as test sample C) was 20%. For the same compound, the “Fold-change (FC) of increase of circulating beta-sitosterol with respect to controls (comparative group A)” value ([6]; 0.264 g beta-sitosterol/kg BW, control set to 1, listed as test sample C) was 6.4 and the “FC increment of circulating beta-sitosterol in relation to reference sample B1 value” ([6]; same dose 0.264 g beta-sitosterol/kg BW) was 2.7.
With `CC[C@H](CC[C@@H](C)[C@H]1CC[C@H]2[C@@H]3CC=C4C[C@@H](O)CC[C@]4(C)[C@H]3CC[C@]12C)C(C)C` [comparative sample B, beta-sitosterol] the “decrease in circulating levels” value [3] was 23%, the “percentage of variation on β-sitosterol plasma levels T5 vs T0, comparison with control (FIG. 16)” value ([3]; 5 h post-treatment, 0.513 g/kg BW) was “decrease in comparison with control (group A)” and the “decrease of plasmatic cholesterol levels” value [4] was 25%. The “increase in triglyceridemia at 5 h (T5)” value ([5]; T5 vs T0, oral load of lard 2.5 g/kg BW supplemented with 0.513 g/kg BW) was 39%.
For `CC[C@H](CC[C@@H](C)[C@H]1CC[C@H]2[C@@H]3CC=C4C[C@@H](O)CC[C@]4(C)[C@H]3CC[C@]12C)C(C)C` [hydrate crystal form of beta-sitosterol, beta-sitosterol], the solubility at 24 h ([1]; 25 °C, FaSSIF-V2, pH 6.5, 25±1° C., calculated through the equilibrium concentrations in the eutectic point, taking into account stoichiometry) was 5.01 µM, the “solubility, comparison between tested samples” value [1] was “more soluble than the commercially available beta-sitosterol” and the “[API] concentration of beta-sitosterol” value ([1]; FaSSIF-V2, pH 6.5, 25±1° C., shake-flask 24 h, value (SD), listed as Sample A) was 2.5 (1) mg/mL. For the same compound, the “decrease in circulating levels” value ([3]; listed as test sample D) was 34%, the “decrease of plasmatic cholesterol levels” value ([4]; listed as test sample D) was 29% and the D10 ([2]; listed as Sample A) was 4.145 μm. The D50 ([2]; listed as Sample A) was 16.39 μm, the D90 ([2]; listed as Sample A) was 34.63 μm and the “D(3, 2) surface weighted mean diameter” value ([2]; listed as Sample A) was 8.558 μm. The Mean particle size ([2]; listed as Sample A) was 18.12 μm and the “reduction” value ([5]; oral load of lard 2.5 g/kg BW supplemented with 0.513 g/kg BW, listed as test sample D) was 2%.
In the case of `CC[C@H](CC[C@@H](C)[C@H]1CC[C@H]2[C@@H]3CC=C4C[C@@H](O)CC[C@]4(C)[C@H]3CC[C@]12C)C(C)C` [reference sample B1, beta-sitosterol], the “Fold-change (FC) of increase of circulating beta-sitosterol with respect to controls (comparative group A)” value ([6]; 0.264 g beta-sitosterol/kg BW, control set to 1) is reported as 2.4.
For `CC[C@H](CC[C@@H](C)[C@H]1CC[C@H]2[C@@H]3CC=C4C[C@@H](O)CC[C@]4(C)[C@H]3CC[C@]12C)C(C)C` [reference sample B2, beta-sitosterol], the “Fold-change (FC) of increase of circulating beta-sitosterol with respect to controls (comparative group A)” value ([6]; 0.528 g/kg BW, control set to 1) was 5.3.
With “cocrystal of beta-sitosterol and benzyl alcohol [cocrystal Form 4]” the “decrease in circulating levels” value [3] was 12%, the “decrease of plasmatic cholesterol levels” value [4] was 31% and the “reduction” value ([5]; oral load of lard 2.5 g/kg BW supplemented with 0.513 g/kg BW) was 7%.
In the case of “cocrystal of beta-sitosterol and gallic acid [cocrystal Form 5]”, the “solubility, comparison between tested samples” value [1] is reported as “more soluble than the remaining tested samples”, the “[API] concentration of beta-sitosterol” value [1, 7] is reported as 3.0 (1.5) mg/mL and the “Log S (logarithm of S in mol/L)” value ([1]; FaSSIF-V2, pH 6.5, 25±1° C., calculated through the equilibrium concentrations in the eutectic point, taking into account stoichiometry) is reported as −4.7 (0.1) mol/L. It also gave a D10 [2] of 3.102 μm, a D50 [2] of 10.24 μm and a D90 [2] of 23.21 μm. The “D(3, 2) surface weighted mean diameter” value [2] was 6.009 μm, the Mean particle size [2] was 12.05 μm and the “Fold-change (FC) of increase of circulating beta-sitosterol with respect to controls (comparative group A)” value ([6]; equivalent to 0.158 g of beta-sitosterol/kg BW, control set to 1) was 4.7. The “Fold-change (FC) of increase of circulating beta-sitosterol with respect to controls (comparative group A)” value ([6]; equivalent to 0.330 g of beta-sitosterol/kg BW, control set to 1) was 7.9.
